Where a name gives a salt, the structure may show the parent alone. Read-outs that look alike come from different tables or passages of the source.
Assays:
[1] = pH and appearance of ganciclovir solutions; assay type: physicochemical; settings: glucose solution, formulation tests
From the text: The earlier tests were tried with the 9-((1,3-dihydroxypropan-2-iloxy)methyl)-2-amine-1-purin-6(9H)-one molecule used for preparing the lyophilized product.
Stabilizing the molecule in this pH, allowed lowering hazards during manipulation, once the previous solution was too much alkaline (pH=11), and was too much irritating after its reconstitution being not possible to be in contact with the skin, mucous membranes and eyes. Using appropriate glasses and gloves were necessary when manipulating this substance.
Yes, but can cause irritation in the site of the injection due the elevate pH of the injectable solution (pH˜11). It also can be done by subcutaneous administration, but with the same local irritation risk.
Because the resulting solution is strongly alkaline (pH=11) and irritating after its reconstitution, one must avoid the contact with the skin, mucous membranes and the eyes. Using glasses and gloves are necessary when manipulating it.

[2] = cited from earlier work
[3] = sodium salt / reconstituted state-of-the-art solution, cited from earlier work
cytomegalovirus = settings: drug derived from acyclovir, U.S. Pat. No. 4,355,032; cited from earlier work

Q: Which results are given for `Nc1nc2c(ncn2COC(CO)CO)c(=O)[nH]1` [Ganciclovir, 9-((1,3-dihydroxypropan-2-iloxy)methyl)-2-amine-1H-purin-6(9H)-one]?
A: appearance of solution [1]: yellowish and oxidized solution; Stability (time) ([2]; room temperature, reconstituted inside its own vial): 12 h; pH of solution [3]: 11; activity against cytomegalovirus, times greater (cytomegalovirus): 100 times

Q: What does the source list for `Nc1nc(O)c2ncn(COC(CO)CO)c2n1` [Ganciclovir sodium salt, 9-((1,3-dihydroxypropan-2-iloxy)methyl)-2-amine-1H-purin-6(9H)-one sodium salt]?
A: physically and chemically stable (time) ([2]; reconstituted with sterile water for injection, diluted with sodium chloride 0.9% in PVC bags, refrigeration at 5° C.): 14 days; pH of solution ([3]; listed as sodium Ganciclovir, sodium salt): 11; pH of solution ([3]; sodium salt): about 11

Source: US20070105879A1 (HALEX ISTAR INDUSTRIA FARMACEUTICA LTDA., priority 2003, published 2007)
